Values of other authors, collected in patent US20060275223A1, “Erythritol compositions for teeth and gums” (priority 2005, published 2006).

Conditions: erythritol comprises 20% of the diet

diarrhea: does not cause diarrhea
Structure (SMILES): OC[C@@H](O)[C@@H](O)CO [erythritol]
